US20240409585A1, “MACROCYCLIC IMMUNOMODULATORS” (priority 2021, published 2024)
Bridge positions count the residues as written; N and C are the ends. Square brackets hold non-standard residues; d marks the D form. Peptide text beside a SMILES is read from it. * marks the point of attachment. Bip(4'-COOH) = N[C@@H](Cc1ccc(-c2ccc(C(=O)O)cc2)cc1)C(=O)O; Bip(4'-NHAc) = CC(=O)Nc1ccc(-c2ccc(C[C@H](N)C(=O)O)cc2)cc1; Phe(3-CF3) = N[C@@H](Cc1cccc(C(F)(F)F)c1)C(=O)O; Ala(morpholin-4-yl) = N[C@@H](CN1CCOCC1)C(=O)O; Phe(4-COOH) = N[C@@H](Cc1ccc(C(=O)O)cc1)C(=O)O; Bip = N[C@@H](Cc1ccc(-c2ccccc2)cc1)C(=O)O; Abu(3R-NH2) = C[C@@H](N)[C@H](N)C(=O)O; Phe(3-Me) = Cc1cccc(C[C@H](N)C(=O)O)c1; Val(3-OH) = CC(C)(O)[C@H](N)C(=O)O; hPhe = N[C@@H](CCc1ccccc1)C(=O)O; 2Pal = N[C@@H](Cc1ccccn1)C(=O)O; Cha = N[C@@H](CC1CCCCC1)C(=O)O; Carboxymethyl = O=C(O)C*; NMeA = CN[C@@H](C)C(=O)O; Orn = NCCC[C@H](N)C(=O)O; Dab = NCC[C@H](N)C(=O)O

Target: T1, Alexa fluor-647 labeled human PD-L1-Ig binding to Jurkat cell line over-expressing human PD-1 (Homo sapiens, UniProt Q15116)
T1 construct: expressed in transfected cells; host or cells: Jurkat
T1 sequence (Q15116 25-288): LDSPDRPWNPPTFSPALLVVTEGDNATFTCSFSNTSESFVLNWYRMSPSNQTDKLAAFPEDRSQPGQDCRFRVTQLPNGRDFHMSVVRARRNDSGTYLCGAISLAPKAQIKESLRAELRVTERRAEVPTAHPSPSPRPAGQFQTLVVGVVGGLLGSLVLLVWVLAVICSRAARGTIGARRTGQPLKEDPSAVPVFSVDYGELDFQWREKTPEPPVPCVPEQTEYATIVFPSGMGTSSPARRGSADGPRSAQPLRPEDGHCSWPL
Assay: Jurkat-PD-1 Cell Binding High-Content Screening Assay (CBA): Method 3 (Alexa fluor-647 labeled PD-L1-Ig)
Conditions: Jurkat-PD-1 cells, Alexa fluor-647 labeled PD-L1-Ig 177 nM; head μM; read-out: CBA Method 3 μM
Summary of the method: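 Jurkat cells over-expressing human PD-1 in RPMI/10% FCS were preincubated 2 h at 37 °C with compound, then exposed 1 h to Alexa fluor-647 labeled human PD-L1-Ig (177 nM final). Cells fixed in 4% paraformaldehyde with Hoechst 33342 and binding quantified by high-content imaging.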

Which IC50 does the source give for Cc1cccc(C[C@@H]2NC(=O)[C@H](CC(=O)O)NC(=O)[C@H](Cc3ccc(C(=O)O)cc3)NC(=O)[C@H](CC3CCCCC3)NC(=O)CSC[C@@H](C(=O)N[C@@H](CCN)C(N)=O)NC(=O)[C@H](CCC(=O)O)NC(=O)[C@H](C(C)C)NC(=O)[C@H](CC3CCCCC3)NC(=O)[C@H](CCN)NC(=O)[C@@H](CC(C)C)NC(=O)[C@H](C)N(C)C(=O)[C@H](Cc3ccc(C(=O)O)cc3)NC(=O)[C@H](Cc3ccc(-c4ccccc4)cc3)NC(=O)[C@H](Cc3ccc(-c4ccc(C(=O)O)cc4)cc3)NC2=O)c1 [Example 5198] ({CH2CO}-[Cha][Phe(4-COOH)]D[Phe(3-Me)][Bip(4'-COOH)][Bip][Phe(4-COOH)][NMeA][dL][Dab][Cha]VEC[Dab]-NH2; thioether N-14) here?
The IC50 was 0.01 µM.

How did the IC50 turn out when CC(C)C[C@H]1NC(=O)[C@H](C)N(C)C(=O)[C@H](CCC(N)=O)NC(=O)[C@H](Cc2ccc(-c3ccccc3)cc2)NC(=O)[C@H](Cc2ccc(-c3ccc(C(=O)O)cc3)cc2)NC(=O)[C@H](Cc2cccc(C(F)(F)F)c2)NC(=O)[C@H](CC(=O)O)NC(=O)[C@H](Cc2ccc(C(=O)O)cc2)NC(=O)[C@H](CC2CCCCC2)NC(=O)CSC[C@@H](C(=O)N[C@@H](CCN)C(N)=O)NC(=O)[C@H](CCCN)NC(=O)[C@H](C(C)C)NC(=O)[C@H](CC2CCCCC2)NC(=O)[C@H](CCN)NC1=O [Example 5165] ({CH2CO}-[Cha][Phe(4-COOH)]D[Phe(3-CF3)][Bip(4'-COOH)][Bip]Q[NMeA][dL][Dab][Cha]V[Orn]C[Dab]-NH2; thioether N-14) was run?
Its IC50 is 0.03 µM.

For CC(=O)Nc1ccc(-c2ccc(C[C@@H]3NC(=O)[C@H](Cc4cccc(C(F)(F)F)c4)NC(=O)[C@H](CC(=O)O)NC(=O)[C@H](Cc4ccc(C(=O)O)cc4)NC(=O)[C@H]([C@@H](C)N)NC(=O)CSC[C@@H](C(=O)N[C@@H](CCN)C(N)=O)NC(=O)[C@H](CCC(=O)O)NC(=O)[C@H](C(C)C)NC(=O)[C@H](CC4CCCCC4)NC(=O)[C@H](CCN)NC(=O)[C@@H](CC(C)C)NC(=O)[C@H](C)N(C)C(=O)[C@H](Cc4ccc(C(=O)O)cc4)NC(=O)[C@H](Cc4ccc(-c5ccccc5)cc4)NC3=O)cc2)cc1 [Example 5160] ({CH2CO}-[Abu(3R-NH2)][Phe(4-COOH)]D[Phe(3-CF3)][Bip(4'-NHAc)][Bip][Phe(4-COOH)][NMeA][dL][Dab][Cha]VEC[Dab]-NH2; thioether N-14), which IC50 is on record?
The IC50 was 0.04 µM.

How did the IC50 turn out when Cc1cccc(C[C@@H]2NC(=O)[C@H](CC(=O)O)NC(=O)[C@H](Cc3ccc(C(=O)O)cc3)NC(=O)[C@H](C)NC(=O)CSC[C@@H](C(=O)N[C@@H](CCN)C(N)=O)NC(=O)[C@H](CCC(=O)O)NC(=O)[C@H](C(C)C)NC(=O)[C@H](CC3CCCCC3)NC(=O)[C@H](CCN)NC(=O)[C@@H](CC(C)C)NC(=O)[C@H](C)N(C)C(=O)[C@H](Cc3ccc(C(=O)O)cc3)NC(=O)[C@H](Cc3ccc(-c4ccccc4)cc3)NC(=O)[C@H](Cc3ccc(C(=O)O)cc3)NC2=O)c1 [Example 5136] ({CH2CO}-A[Phe(4-COOH)]D[Phe(3-Me)][Phe(4-COOH)][Bip][Phe(4-COOH)][NMeA][dL][Dab][Cha]VEC[Dab]-NH2; thioether N-14) was run?
Its IC50 is 0.02 µM.

With Cc1cccc(C[C@@H]2NC(=O)[C@H](CC(=O)O)NC(=O)[C@H](Cc3ccc(OCC(=O)O)cc3)NC(=O)[C@H](CC3CCCCC3)NC(=O)CSC[C@@H](C(=O)N[C@@H](CCN)C(N)=O)NC(=O)[C@H](CCCN)NC(=O)[C@H](C(C)C)NC(=O)[C@H](Cc3ccccn3)NC(=O)[C@H](CCN)NC(=O)[C@@H](CC(C)C)NC(=O)[C@H](C)N(C)C(=O)[C@H](CCC(N)=O)NC(=O)[C@H](Cc3ccc(-c4ccccc4)cc3)NC(=O)[C@H](Cc3ccc(C(=O)O)cc3)NC2=O)c1 [Example 5194] ({CH2CO}-[Cha]Y(Carboxymethyl)D[Phe(3-Me)][Phe(4-COOH)][Bip]Q[NMeA][dL][Dab][2Pal]V[Orn]C[Dab]-NH2; thioether N-14) as the molecule, how does the IC50 read?
The IC50 was 0.04 µM.

For Cc1cccc(C[C@@H]2NC(=O)[C@H](CC(=O)O)NC(=O)[C@H](Cc3ccc(-c4ccc(C(=O)O)cc4)cc3)NC(=O)[C@H](CN3CCOCC3)NC(=O)CSC[C@@H](C(=O)N[C@@H](CCN)C(N)=O)NC(=O)[C@H](CO)NC(=O)[C@H](C(C)(C)O)NC(=O)[C@H](CC3CCCCC3)NC(=O)[C@H](Cc3cnc[nH]3)NC(=O)[C@@H](CC(C)C)NC(=O)[C@H](C)N(C)C(=O)[C@H](Cc3ccc(C(=O)O)cc3)NC(=O)[C@H](Cc3ccc(-c4ccccc4)cc3)NC(=O)[C@H](Cc3ccc(-c4ccc(C(=O)O)cc4)cc3)NC2=O)c1 [Example 5122] ({CH2CO}-[Ala(morpholin-4-yl)][Bip(4'-COOH)]D[Phe(3-Me)][Bip(4'-COOH)][Bip][Phe(4-COOH)][NMeA][dL]H[Cha][Val(3-OH)]SC[Dab]-NH2; thioether N-14), which IC50 is on record?
Its IC50 is 0.11 µM.

Same assay, conditions: Jurkat-PD-1 cells, Alexa fluor-647 labeled PD-L1-Ig 177 nM; nM; read-out: CBA Method 3

With Cc1cccc(C[C@@H]2NC(=O)[C@H](CC(=O)O)NC(=O)[C@H](Cc3ccc(OCC(=O)O)cc3)NC(=O)[C@H](CC(N)=O)NC(=O)CSC[C@@H](C(=O)N[C@@H](CCN)C(N)=O)NC(=O)[C@H](CCCN)NC(=O)[C@H](C(C)C)NC(=O)[C@H](CC3CCCCC3)NC(=O)[C@H](CCN)NC(=O)[C@@H](CC(C)C)NC(=O)[C@H](C)N(C)C(=O)[C@H](CCC(N)=O)NC(=O)[C@H](Cc3ccc(-c4ccccc4)cc3)NC(=O)[C@H](Cc3ccc(C(=O)O)cc3)NC2=O)c1 [Example 5187] ({CH2CO}-NY(Carboxymethyl)D[Phe(3-Me)][Phe(4-COOH)][Bip]Q[NMeA][dL][Dab][Cha]V[Orn]C[Dab]-NH2; thioether N-14) as the molecule, how does the IC50 read?
Its IC50 is 0.008 µM.

For CC(C)C[C@@H]1NC(=O)[C@H](Cc2c[nH]c3ccccc23)NC(=O)[C@H](CC(=O)O)NC(=O)[C@H](Cc2ccc(-c3ccc(C(=O)O)cc3)cc2)NC(=O)[C@H](CN2CCOCC2)NC(=O)CSC[C@@H](C(=O)N[C@@H](CCN)C(N)=O)NC(=O)[C@H](CCC(=O)O)NC(=O)[C@H](C(C)C)NC(=O)[C@H](CC(C)C)NC(=O)[C@H](CC(N)=O)NC(=O)[C@@H](CC(C)C)NC(=O)[C@H](C)N(C)C(=O)[C@H](C(C)C)NC(=O)[C@H](Cc2ccc(-c3ccccc3)cc2)NC1=O [Example 5124] ({CH2CO}-[Ala(morpholin-4-yl)][Bip(4'-COOH)]DWL[Bip]V[NMeA][dL]NLVEC[Dab]-NH2; thioether N-14), which IC50 is on record?
Its IC50 is 0.0026 µM.

For CC(C)C[C@H]1NC(=O)[C@H](C)N(C)C(=O)[C@H](Cc2ccc(OCC(=O)O)cc2)NC(=O)[C@H](Cc2ccc(-c3ccccc3)cc2)NC(=O)[C@H](Cn2cc(C3CC3)nn2)NC(=O)[C@H](Cc2cccc(C(F)(F)F)c2)NC(=O)[C@H](CC(=O)O)NC(=O)[C@H](Cc2ccc(C(=O)O)cc2)NC(=O)[C@H](CN2CCOCC2)NC(=O)CSC[C@@H](C(=O)N[C@@H](CCN)C(N)=O)NC(=O)[C@H](CCC(N)=O)NC(=O)[C@H](C(C)C)NC(=O)[C@H](CC2CCCCC2)NC(=O)[C@H](CCN)NC1=O [Example 5250], which IC50 is on record?
Its IC50 is 0.0014 µM.

Which IC50 does the source give for Cc1cccc(C[C@@H]2NC(=O)[C@H](CC(=O)O)NC(=O)[C@H](Cc3ccc(C(=O)O)cc3)NC(=O)[C@H](CN3CCOCC3)NC(=O)CSC[C@@H](C(=O)N[C@@H](CCN)C(N)=O)NC(=O)[C@H](CCC(=O)O)NC(=O)[C@H](C(C)C)NC(=O)[C@H](CC3CCCCC3)NC(=O)[C@H](Cc3cnc[nH]3)NC(=O)[C@@H](CC(C)C)NC(=O)[C@H](C)N(C)C(=O)[C@H](Cc3ccc(C(=O)O)cc3)NC(=O)[C@H](Cc3ccc(-c4ccccc4)cc3)NC(=O)[C@H](Cc3ccc(C(=O)O)cc3)NC2=O)c1 [Example 5254] ({CH2CO}-[Ala(morpholin-4-yl)][Phe(4-COOH)]D[Phe(3-Me)][Phe(4-COOH)][Bip][Phe(4-COOH)][NMeA][dL]H[Cha]VEC[Dab]-NH2; thioether N-14) here?
Its IC50 is 0.0013 µM.

For CC(C)C[C@H]1NC(=O)[C@H](C)N(C)C(=O)[C@H](CCC(N)=O)NC(=O)[C@H](Cc2ccc(-c3ccccc3)cc2)NC(=O)[C@H](CCc2ccccc2)NC(=O)[C@H](Cc2cccc(C(F)(F)F)c2)NC(=O)[C@H](CC(=O)O)NC(=O)[C@H](Cc2ccc(O)cc2)NC(=O)[C@H](CN2CCOCC2)NC(=O)CSC[C@@H](C(=O)N[C@@H](CCN)C(N)=O)NC(=O)[C@H](CCC(N)=O)NC(=O)[C@H](C(C)C)NC(=O)[C@H](CC2CCCCC2)NC(=O)[C@H](CCN)NC1=O [Example 5240] ({CH2CO}-[Ala(morpholin-4-yl)]YD[Phe(3-CF3)][hPhe][Bip]Q[NMeA][dL][Dab][Cha]VQC[Dab]-NH2; thioether N-14), which IC50 is on record?
The IC50 was 0.0044 µM.

For CC(=O)Nc1ccc(-c2ccc(C[C@@H]3NC(=O)[C@H](Cc4cccc(C(F)(F)F)c4)NC(=O)[C@H](CC(=O)O)NC(=O)[C@H](Cc4ccc(C(=O)O)cc4)NC(=O)[C@H](Cc4ccc(OCC(=O)O)cc4)NC(=O)CSC[C@@H](C(=O)N[C@@H](CCN)C(N)=O)NC(=O)[C@H](CCC(=O)O)NC(=O)[C@H](C(C)C)NC(=O)[C@H](CC4CCCCC4)NC(=O)[C@H](CCN)NC(=O)[C@@H](CC(C)C)NC(=O)[C@H](C)N(C)C(=O)[C@H](Cc4ccc(OCC(=O)O)cc4)NC(=O)[C@H](Cc4ccc(-c5ccccc5)cc4)NC3=O)cc2)cc1 [Example 5163] ({CH2CO}-Y(Carboxymethyl)[Phe(4-COOH)]D[Phe(3-CF3)][Bip(4'-NHAc)][Bip]Y(Carboxymethyl)[NMeA][dL][Dab][Cha]VEC[Dab]-NH2; thioether N-14), which IC50 is on record?
Its IC50 is 0.0025 µM.

How did the IC50 turn out when CC(=O)Nc1ccc(-c2ccc(C[C@@H]3NC(=O)[C@H](Cc4cccc(C)c4)NC(=O)[C@H](CC(=O)O)NC(=O)[C@H](Cc4ccc(-c5ccc(C(=O)O)cc5)cc4)NC(=O)[C@H](CN4CCOCC4)NC(=O)CSC[C@@H](C(=O)N[C@@H](CCN)C(N)=O)NC(=O)[C@H](CCC(=O)O)NC(=O)[C@H](C(C)C)NC(=O)[C@H](CC4CCCCC4)NC(=O)[C@H](Cc4cnc[nH]4)NC(=O)[C@@H](CC(C)C)NC(=O)[C@H](C)N(C)C(=O)[C@H](Cc4ccc(C(=O)O)cc4)NC(=O)[C@H](Cc4ccc(-c5ccccc5)cc4)NC3=O)cc2)cc1 [Example 5253] ({CH2CO}-[Ala(morpholin-4-yl)][Bip(4'-COOH)]D[Phe(3-Me)][Bip(4'-NHAc)][Bip][Phe(4-COOH)][NMeA][dL]H[Cha]VEC[Dab]-NH2; thioether N-14) was run?
Its IC50 is 0.0028 µM.
